Consider 1 compound from patent US11752116B2, “Method of viral inhibition” (priority 2013, dated 2023).

Data set [1] concerns DENV-1. Nature of the data set: Cell-based flavivirus immunodetection assay in BHK-21 cells, DENV-1. As to conditions: MOI of 0.3, 48 h p.i. On the procedure: (§1) To investigate this, BHK-21 cells were infected with DENV serotypes 1, 2, 3 or 4 (MOI of 0.3) for 1 h in the presence of 4-HPR or 4-MPR (concentrations as indicated in FIG. 6A). Virus inoculum was removed and fresh media containing the indicated compounds was added. Virus infection rates were determined 48 h p.i. using a cell-based flavivirus immunodetection assay. Briefly, cells were fixed and stained for DENV structural protein, E, followed by addition of Alexa Fluor 488 anti-mouse IgG. Viral antigen quantification was performed using Imagexpress. Data shown are representative of a single experiment

In data set [2] the test system is DENV-2. The experiment in a line: Plaque assay in Huh-7 cells, DENV-2. In kind it is cell-based. As to conditions: Dengue virus, DENV2, Huh-7, 48 h, read-out: EC50, infectious virus titre DENV 2. The protocol:
(§2) To ensure the antiviral activity of 4-HPR is not cell-line specific Huh-7 cells were also infected with DENV-1, 2, 3 or 4 (MOI of 0.3) in the presence of increasing concentrations of 4-HPR, with infectious virus titres determined by plaque assay at 48 h p.i.

In data set [3] the test system is CHIKV. Nature of the data set: CHIKV infection of HEK293T cells, plaque assay. In kind it is cell-based. The note with it: 5 μM, 24 h p.i. The protocol:
HEK293T cells were treated with 5 μM 4-HPR or 4-MPR for 2 h, then infected with CHIKV for 1 h (MOI of 0.1) in the absence of compound (FIG. 9A). Alternatively, HEK293T cells were infected with CHIKV for 1 h (MOI of 0.1) without pre-treating the cells with compound (FIG. 9B). In both instances, virus inoculums were removed, then fresh medium containing the indicated compound was added (FIG. 9A and FIG. 9B). Infectious virus titres were determined by plaque assay 24 h p.i. Data are the mean+standard deviation of one experiment performed in duplicate wells, represented as plaque forming units per ml (PFU/ml).

Data set [4] relates to DENV-4. Nature of the data set: Plaque assay in Huh-7 cells, DENV-4. In kind it is cell-based. The note with it: Dengue virus, DENV4, Huh-7, 48 h, read-out: EC50, infectious virus titre DENV 4. On the procedure: as §2
Data set [5] has as its target DENV-2 NS5 / IMPαΔIBB (Dengue virus type 2, UniProt P14340). Nature of the data set: AlphaScreen binding of His6-NS5 to IMPαΔIBB. The protocol:
(§3) To investigate the specificity of 4-HPR inhibition of NS5-importin association, the binding of 30 nM His6-NS5 to 10 nM IMPα/β, (IMPα/β heterodimer containing biotinylated IMPβ1), 3 nM IMPαΔIBB (biotinylated IMPa with the IMPβ-binding domain removed), or 3 nM biotinylated IMPβ1, in the presence of increasing concentrations of 4-HPR, was investigated.

Data set [6] deals with DENV-1. The experiment in a line: ADE-mediated DENV-1 infection of human PBMCs, plaque assay. The data set is classed as cell-based. The note with it: Dengue virus, DENV1, PBMC, MOI of 10, 48 h, read-out: ex vivo EC50, ADE-mediated DENV-1 infection. The protocol: The antiviral activity of 4-HPR was investigated in the more physiologically relevant human system of peripheral blood mononuclear cells (PBMCs), a major target of DENV infection in humans.
PBMCs were prepared from a healthy donor buffy coat using a Ficoll gradient, prior to ADE-mediated DENV-1 infection (MOI of 10) in the presence of increasing concentrations of 4-HPR or 4-MPR, and infectious virus titres determined by plaque assay 48 h later.

Data set [7] concerns DENV-3. The experiment in a line: Plaque assay in Huh-7 cells, DENV-3. In kind it is cell-based. The note with it: Dengue virus, DENV3, Huh-7, 48 h, read-out: EC50, infectious virus titre DENV 3. The protocol:
as §2

Data set [8] deals with DENV-2. Nature of the data set: Delayed addition in DENV-2 infected Huh-7 cells, NS1 RNA by qPCR. As to conditions: 7.5 μM added 12 h p.i., at 24 h p.i. The data set is classed as cell-based. The protocol: To gain further insight into the mode of action of 4-HPR, the human liver carcinoma cell line, Huh-7 cells were infected with DENV-2 (MOI of 1), followed by delayed addition of drug diluent DMSO (DENV only), 7.5 μM 4-HPR, 7.5 μM 4-MPR or 10 μM NITD008 (a previously described adenosine nucleoside inhibitor), 12 h post infection. Cells were lysed at the indicated times, RNA was extracted by Trizol and analysed by qPCR with fold change in expression of NS1 calculated relative to the untreated control (FIG. 5B). Concurrently, culture medium was collected and viral titres determined by plaque assay (FIG. 5C).

For data set [9], the system named is DENV-2. Nature of the data set: Cell-based flavivirus immunodetection assay in BHK-21 cells, DENV-2. As to conditions: Dengue virus, DENV2, BHK-21, 48 h, read-out: EC50, DENV-2 replication. The protocol: as §1
In data set [10] the test system is PERK pathway. The experiment in a line: Activation of PERK pathway of the unfolded protein response in DENV-infected cells. The data set is classed as cell-based.
The conditions of data set [11]: up to 4,000 mg/m^2/day, daily for 28 days, including in children; cited from earlier work.
Data set [12] deals with DENV-2 NS5 / IMPα/β (Dengue virus type 2, UniProt P14340). Nature of the data set: AlphaScreen binding of His6-NS5 to IMPα/β heterodimer. On the procedure: AlphaScreen®, a luminescent bead-based assay that measures direct protein-protein interactions, was used to examine the binding of 3 nM His6-NS5 to 10 nM IMPα/β (IMPα/β heterodimer containing biotinylated IMPβ1) in the presence of increasing concentrations of 4-HPR, 4-MPR or ATRA (FIG. 1A), or 4-oxo-4-HPR, 4-HPR or 4-MPR (FIG. 1B). Data are the mean±standard deviation (SD) of triplicate wells from a single typical experiment.
as §3

For data set [13], the system named is DENV-1. Nature of the data set: Plaque assay in Huh-7 cells, DENV-1. In kind it is cell-based. The note with it: Dengue virus, DENV1, Huh-7, 48 h, read-out: EC50, infectious virus titre DENV 1. On the procedure: as §2
For data set [14], the target named is DENV-2 NS5 / IMPβ1 (Dengue virus type 2, UniProt P14340). Nature of the data set: AlphaScreen binding of His6-NS5 to biotinylated IMPβ1. As to conditions: 30 nM His6-NS5, 3 nM biotinylated IMPβ1, increasing concentrations of 4-HPR. On the procedure: as §3

Take `CC1=C(/C=C/C(C)=C/C=C/C(C)=C/C(=O)Nc2ccc(O)cc2)C(C)(C)CCC1` [4-HPR, N-(4-hydroxyphenyl) retinamide]: the “EC50, DENV-1 replication” value in [1] is “low EC50”. For the same compound, the EC50 in [2] is 2.1 µM; in data set [4], 2.1 µM; in data set [6] it was 0.81 µM; in data set [7] it was 1.4 µM; in data set [9], 2.24 µM; in data set [13], 2.6 µM. Also, the “reduction of infectious CHIKV produced” value in data set [3] (HEK293T cells pre-treated 2 h with compound) is approximately 100%; in data set [3] (HEK293T cells, compound added after infection), approximately 95%. Besides, the IC50 in [5] is 1.6 µM; in [12], 1.2 µM. In addition, in data set [8], the “reduction in viral RNA levels (NS1 qPCR)” value came out at 1 log. In data set [10], the “activation of PERK pathway within the unfolded protein response” value is reported as “induces activation of the pro-apoptotic PERK pathway”. For the same compound, the “toxicity profile in cancer treatment” value in data set [11] was “favourable toxicity profiles”. Moreover, in data set [12] (3 nM His6-NS5, 10 nM IMPα/β, increasing concentrations of compound), the “block of association of DENV-2 NS5 with IMPα/β” value is listed as “able to block association”. In addition, the “NS5 binding to IMPβ1 alone” value in [14] is “largely unaffected”.
